A short description of data set [1]: Release of quercetin during in vitro gastrointestinal digestion simulation. Format: in vitro ADME. As to conditions: for release rate of quercetin: simulated gastric digestion. As to the method: Experimental method: The pH of 40 mL of freshly prepared free quercetin and quercetin composite nanoparticles dispersion was adjusted to 2.0 with 1 M HCl. After 10 min of preheating in a shaker (37° C., 100 rpm/min), 26.7 mg of pepsin was added and thoroughly mixed for 1 h to initiate simulated gastric digestion. After 1 h of digestion at 37° C., the pH of the pepsin digest was adjusted to 7.4 using 5 M NaOH. 200 mg of bile salts were added and mixed well in a shaker for 10 min. Then 13.6 mg of trypsin was added to start simulated intestinal digestion for 2 h. During the simulated gastrointestinal digestion process, 3 mL of digestion samples were collected at different digestion time (0, 30, 60, 90, 120, 150 and 180 min), and the enzyme was immediately inactivated with liquid nitrogen to terminate the reaction. The content of quercetin was determined, and the release rate (%) of quercetin was calculated according to the following formula: […]

Data set [2] in a line: Solubility of quercetin in water. Format: physicochemical. As to the method:
Determination method: The quercetin concentration in the quercetin-loaded composite nanoparticle dispersion liquid was determined in the same manner as described in the examples, and calculation was done using the standard curve and dilution ratio. And the solubility of quercetin in water was calculated according to the following formula:
Solubility (μg/mL)=detected quercetin concentration×dilution factor

Data set [3] in a line: Effect of temperature on stability of quercetin (retention rate). As to conditions: water bath 60, 75 and 90° C. for 30 min. The data set is classed as physicochemical. The method, then:
Experimental method: The newly prepared free quercetin and quercetin-loaded composite nanoparticle dispersions were placed into glass-sealed bottles and heated in a water bath at 60, 75 and 90° C. for 30 min, respectively. It was then immediately cooled to room temperature at 25° C., and the amount of quercetin remaining in the sample was determined. The retention rate (%) of quercetin was calculated according to the following formula: […]

The nature of data set [4]: DPPH free radical scavenging method. Format: biochemical. As to conditions: 100 μM DPPH, 30 min in dark. As to the method:
A 100 μM solution of DPPH (as-is) was prepared in dark using absolute ethanol. A volume of 2 mL DPPH solution was taken out and mixed well with 2 mL of sample solution, and allowed to react in dark at room temperature for 30 min. The absorbance at 517 nm of the mixture was measured using a UV-visible spectrophotometer. Distilled water and absolute ethanol were served as blank controls instead of samples. The formula for calculating the DPPH free radical scavenging rate of the sample was as follows:
Wherein, A0 represents blank; A1 is the sample with ethanol; A2 is the sample with DPPH solution.

The nature of data set [5]: Effect of light (UV 253.7 nm) on stability of quercetin (retention rate). Format: physicochemical. As to conditions: after 210 min of ultraviolet light irradiation. As to the method:
Experimental method: The freshly prepared free quercetin and quercetin-loaded composite nanoparticle dispersions were taken into transparent glass bottles in equal volume. It was then placed in a light cabinet of 0.24 m^3 and exposed to light with a wavelength of 253.7 nm, which was generated by a UV lamp with a power of 20 W. After exposure to light for 0, 30, 60, 90, 150, and 210 min, the stability of quercetin in different samples was studied, the residual quercetin content in the samples was determined, and the retention rate of quercetin (%) was calculated according to the following formula: […]

Turning to `O=c1c(O)c(-c2ccc(O)c(O)c2)oc2cc(O)cc(O)c12` [quercetin], the “quercetin released in the digestive juice” value in data set [1] (after subsequent simulated intestinal digestion) is given as 90.09%. Further, the “release rate of quercetin” value was 64.06% in data set [1] (60 min) and 42.36% in data set [1] (first 30 min). The “solubility of quercetin in water” value in data set [2] was 7.05 µg/mL. Besides, the “thermal stability of quercetin” value in data set [3] is recorded as “poor thermal stability”. In addition, the “DPPH free radical scavenging rate” value in data set [4] is 94.52%. In addition, the “retention rate of quercetin” value in data set [5] turned out to be 60.08%.

These data come from patent US20230276832A1, “ULTRASONIC PREPARATION METHOD OF PROTEIN-DERIVED PEPTIDE-POLYSACCHARIDE NANOPARTICLES LOADED WITH BIOACTIVE COMPONENTS” (JIANGSU UNIVERSITY, priority 2021, published 2023).
